Legend:
[1] = biological target: T1, chimeric protein PPARα-Gal4 (Homo sapiens, UniProt Q07869); experiment: PPAR activation, Gal4 chimera luciferase reporter in co-transfected CV-1 cells; type: cell-based; settings: 50 μM, 18 hours contact
T1 construct: Gal4 (fusion partner); expressed in transfected cells; host or cells: CV-1 cells (monkey kidney cells)
T1 sequence (Q07869 239-466 limits assumed): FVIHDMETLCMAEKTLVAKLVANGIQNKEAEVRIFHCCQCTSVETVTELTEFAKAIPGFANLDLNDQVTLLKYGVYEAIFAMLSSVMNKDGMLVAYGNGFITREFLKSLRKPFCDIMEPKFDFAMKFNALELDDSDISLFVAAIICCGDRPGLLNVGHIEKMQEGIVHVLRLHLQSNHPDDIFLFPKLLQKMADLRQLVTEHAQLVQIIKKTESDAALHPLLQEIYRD
Procedure: (§1) The measurement of the PPAR activation was performed according to a technique described by Lehmann et al. (1995, J. Biol. Chem. 270: 12953-12956).
(§2) CV-1 cells (monkey kidney cells) are co-transfected with an expression vector for the chimeric proteins PPARα-Gal4 or PPARγ-Gal4 and with a “reporter” plasmid which allows the expression of the luciferase gene placed under the control of a promoter containing Gal4 response elements.
(§3) The cells are inoculated in 96-zwell microplates and co-transfected using a commercial reagent with the reporter plasmid (pG5-tk-pGL3) and the expression vector for the chimeric protein (PPARα-Gal4 or PPARγ-Gal4). After incubating for 4 hours, whole culture medium (containing 10% foetal calf serum) is added to the wells. After 24 hours, the medium is removed and replaced with whole medium containing the test products (50 μM final). The products are left in contact with the cells for 18 hours. The cells are then lysed and the ludferase activity is measured using a luminometer. A PPAR activation factor can then be calculated by means of the activation of the expression of the reporter gene induced by the product (relative to the control cells that have not received any product).

[2] = biological target: T2, chimeric protein PPARγ-Gal4 (Homo sapiens, UniProt P37231); experiment: as above; type: cell-based; settings: 50 μM, 18 hours contact
T2 construct: Gal4 (fusion partner); expressed in transfected cells; host or cells: CV-1 cells (monkey kidney cells)
T2 sequence (P37231 238-503 limits assumed): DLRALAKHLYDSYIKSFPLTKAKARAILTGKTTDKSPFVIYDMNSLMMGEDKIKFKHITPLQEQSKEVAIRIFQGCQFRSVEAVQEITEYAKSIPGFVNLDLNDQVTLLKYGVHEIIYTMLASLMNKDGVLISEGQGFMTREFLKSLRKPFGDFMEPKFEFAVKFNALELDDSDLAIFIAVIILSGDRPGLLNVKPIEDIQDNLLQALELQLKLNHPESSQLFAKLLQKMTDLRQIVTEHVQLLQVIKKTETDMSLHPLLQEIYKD
Procedure: as §1, §2, §3

[3] = system: vector expressing Gal4 alone; experiment: Luciferase reporter control without PPAR ligand binding region in CV-1 cells; type: cell-based; settings: in the presence of the product
Text: CV-1 cells (monkey kidney cells) are co-transfected with an expression vector for the chimeric proteins PPARα-Gal4 or PPARγ-Gal4 and with a “reporter” plasmid which allows the expression of the luciferase gene placed under the control of a promoter containing Gal4 response elements. The cells are inoculated in 96-zwell microplates and co-transfected using a commercial reagent with the reporter plasmid (pG5-tk-pGL3) and the expression vector for the chimeric protein (PPARα-Gal4 or PPARγ-Gal4). After incubating for 4 hours, whole culture medium (containing 10% foetal calf serum) is added to the wells. After 24 hours, the medium is removed and replaced with whole medium containing the test products (50 μM final). The products are left in contact with the cells for 18 hours. The cells are then lysed and the ludferase activity is measured using a luminometer. A PPAR activation factor can then be calculated by means of the activation of the expression of the reporter gene induced by the product (relative to the control cells that have not received any product). […] In the absence of the binding region for the PPARα or γ ligand (vector expressing Gal4 alone), the luciferase activity measured in the presence of this product is zero.

db/db mice = experiment: Antidiabetic and hypolipidaemiant activity, oral, in db/db mice; type: in vivo; settings: oral 20 mg/kg/day for 15 days
Procedure: The antidiabetic and hypolipidaemiant activity of the compounds was determined orally in db/db mice.
16 week-old db/db mice are treated orally for 15 days with the compound of Example 5 (20 mg/kg/day). Each group studied comprises seven animals. After treatment for 15 days, retro-orbital samples are taken after a mild anaesthesia and fasting for 4 hours.
The following parameters were measured:
Glycaemia assay (glucose oxidase) and assay of the lipid parameters on the sera at D15 (COBAS): triglycerides, total cholesterol (CHOL), the HDL cholesterol (HDL-C) and the free fatty acids (FFA) (BioMérieux and Waco Chemicals assay kit).
The measurements given represent mean values±standard error.

[4] = serum D15, mean ± standard error

O=C(O)C(CCSc1ccccc1)Oc1ccc(C(F)(F)F)cc1 (centres unmarked) [Example 5, 4-phenylsulphanyl-2-(4-trifluoromethylphenoxy)butyric acid]
PPAR activation factor (reporter gene expression relative to control cells) [1]: nine | PPAR activation factor (reporter gene expression relative to control cells) [2]: six | luciferase activity in the absence of the binding region for the PPARα or γ ligand [3]: zero | CHOL, % variation relative to the control (db/db mice; D15, * p < 0.05 vs control): 47* % | FFA, % variation relative to the control (db/db mice; D15, * p < 0.05 vs control): −38* % | Glycaemia, % variation relative to the control (db/db mice; D15, * p < 0.05 vs control): −59* % | HDL-C, % variation relative to the control (db/db mice; D15, * p < 0.05 vs control): 36* % | Triglycerides, % variation relative to the control (db/db mice; D15, * p < 0.05 vs control): −47* % | Glycaemia (db/db mice; D15, fasting 4 hours, mean ± standard error): 11.1 ± 3.3 mM | CHOL (total cholesterol) (db/db mice; [4]): 5.4 ± 0.9 mM | FFA (free fatty acids) (db/db mice; [4]): 0.4 ± 0.0 mM | HDL-C (db/db mice; [4]): 4.3 ± 0.6 mM | Triglycerides (db/db mice; [4]): 0.7 ± 0.1 mM | melting point: 108 to 110 °C

Reference: patent US7491747B2, “Butyric acid derivatives” (Merck Patent GmbH, priority 2001, dated 2009)
